Experimental data as given in ChEMBL document CHEMBL4368883, “Identification of the first enantiopure Rac1-Tiam1 protein-protein interaction inhibitor and its optimized synthesis via phosphine free remote group directed hydroarylation” (Medchemcomm, 2019).
The source made the active and inactive calls. The calls are words filed in the database; no cut-off is given here.

Key:
[1] = molecular target: T1, Ras-related C3 botulinum toxin substrate 1/T-lymphoma invasion and metastasis-inducing protein 1 (Homo sapiens) (UniProt P63000+Q13009); experiment: Inhibition of Rac1-Tiam1 protein-protein interaction in human A617 cells assessed as reduction in intracellular Rac1-GTP levels at 1 to 10 uM after 4 hrs by G-LISA assay; assay type: cell-based
[2] = molecular target: T1, Ras-related C3 botulinum toxin substrate 1/T-lymphoma invasion and metastasis-inducing protein 1 (Homo sapiens); experiment: Inhibition of Rac1-Tiam1 protein-protein interaction in human A617 cells assessed as reduction in intracellular Rac1-GTP levels at 10 uM after 4 hrs by G-LISA assay relative to control; assay type: cell-based

Question: CCOC(=O)C1(N)C2CC(CC2c2cccc(Nc3ccc(N)cc3)c2)C1Sc1ccccc1 (racemic) was tested. Which inhibition [1] did it give?
Answer: inactive

Question: And the inhibition [2]?
Answer: 17.2%
